These compounds were tested against T1, human Edg-1 (S1P1) (Homo sapiens, UniProt P21453) (assay: S1P1 binding assay: inhibition of [33P]-S1P binding to membrane fraction of HEK-293 cells transferred with the human Edg-1 (S1P1) gene). Conditions: test compound 10 μM; inhibition of [33P]-S1P binding, membrane fraction.
T1 construct: expressed in transfected cells; host or cells: HEK-293
Procedure, shortened: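 Membranes from S1P1-transfected HEK-293 cells incubated 1 h at 30° C in pH 7.4 Tris buffer with fatty acid-free BSA, 0.1 nM [33P]-S1P and test compound (0.1% DMSO). Filter-bound radioactivity was counted; inhibition corrected for binding to untransfected-cell membranes, and IC50 derived from concentration series.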

T1 sequence (P21453 whole entry): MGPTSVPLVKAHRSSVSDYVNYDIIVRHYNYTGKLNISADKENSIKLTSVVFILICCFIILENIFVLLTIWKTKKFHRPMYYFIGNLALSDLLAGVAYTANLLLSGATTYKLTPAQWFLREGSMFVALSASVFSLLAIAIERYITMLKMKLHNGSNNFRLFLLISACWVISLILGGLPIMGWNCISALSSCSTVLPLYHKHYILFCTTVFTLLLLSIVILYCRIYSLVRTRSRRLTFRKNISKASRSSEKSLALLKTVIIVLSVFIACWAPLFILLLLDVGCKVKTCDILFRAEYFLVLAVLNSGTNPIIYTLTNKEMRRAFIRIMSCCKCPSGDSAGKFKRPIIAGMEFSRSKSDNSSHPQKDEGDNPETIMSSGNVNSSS

Compound | inhibition at 10 µM [%]
CCn1c(Oc2cccc(N3CCN(C)CC3)c2)nnc1[C@@H](C)NS(=O)(=O)c1ccccc1C#N [Compound 506] | 83.2
CCn1c(Oc2ccc3cc[nH]c3c2)nnc1[C@@H](C)NS(=O)(=O)Cc1cccc(Cl)c1 [Compound 430] | 50
CCn1c(Oc2ccc3cc[nH]c3c2)nnc1[C@@H](C)NS(=O)(=O)CC1CCCCC1 [Compound 458] | 83.8
CCn1c(Oc2ccc3cc[nH]c3c2)nnc1[C@@H](C)NS(=O)(=O)c1ccc2c(c1)OCCO2 [Compound 461] | 99.7
CCn1c(Oc2cccc(N3CCN(C)CC3)c2)nnc1[C@@H](C)NS(=O)(=O)CCCOc1ccc(OC)cc1 [Compound 618] | 65.4
CCn1c(Oc2cccc(N3CCN(C)CC3)c2)nnc1[C@@H](C)NS(=O)(=O)c1c(F)c(Br)cc(F)c1Br [Compound 589] | 80.2
CCn1c(Oc2cccc(N3CCN(C)CC3)c2)nnc1[C@@H](C)NS(=O)(=O)c1ccc(Br)cc1OC(F)(F)F [Compound 504] | 53.5
CCn1c(Oc2ccc3cc[nH]c3c2)nnc1[C@@H](C)NS(=O)(=O)c1cccc(Cl)c1F [Compound 452] | 68.9
CCOc1ccc(NC(C)=O)cc1S(=O)(=O)N[C@H](C)c1nnc(Oc2cccc(N3CCN(C)CC3)c2)n1CC [Compound 649] | 64.7
CCc1cc(Br)ccc1S(=O)(=O)N[C@H](C)c1nnc(Oc2ccc3cc[nH]c3c2)n1CC [Compound 406] | 56.3
CCn1c(Oc2cccc(N3CCN(C)CC3)c2)nnc1[C@@H](C)NS(=O)(=O)c1c(C)noc1C [Compound 541] | 65.5
CCn1c(Oc2ccc3cc[nH]c3c2)nnc1[C@@H](C)NS(=O)(=O)c1cc(F)c(F)c(F)c1 [Compound 439] | 98.1
CCn1c(Oc2ccc3cc[nH]c3c2)nnc1[C@@H](C)NS(=O)(=O)c1ccc(F)c(F)c1F [Compound 409] | 74.7

Other lines, results leading:

inhibition at 10 µM [%] | Compound
102 | CCn1c(Oc2cccc(N3CCN(C)CC3)c2)nnc1[C@@H](C)NS(=O)(=O)c1cccc(Cl)c1C [Compound 555]
106 | CCn1c(Oc2cccc(N3CCN(C)CC3)c2)nnc1[C@@H](C)NS(=O)(=O)c1ccc(Br)cc1F [Compound 582]
92.4 | CCn1c(Oc2cccc(N3CCN(C)CC3)c2)nnc1[C@@H](C)NS(=O)(=O)c1ccc(F)c(F)c1F [Compound 577]
99.9 | CCn1c(Oc2cccc(N3CCN(C)CC3)c2)nnc1[C@@H](C)NS(=O)(=O)c1ccc(F)c(F)c1 [Compound 581]
100 | CCn1c(Oc2cccc(N3CCN(C)CC3)c2)nnc1[C@@H](C)NS(=O)(=O)c1ccc(Br)cc1Br [Compound 600]
88.7 | CCn1c(Oc2cccc(N3CCN(C)CC3)c2)nnc1[C@@H](C)NS(=O)(=O)c1c(Cl)cc(Cl)cc1Cl [Compound 566]
116 | CCn1c(Oc2cccc(N3CCN(C)CC3)c2)nnc1[C@@H](C)NS(=O)(=O)c1cc(Cl)cc(Cl)c1 [Compound 554]
109 | CCn1c(Oc2cccc(N3CCN(C)CC3)c2)nnc1[C@@H](C)NS(=O)(=O)c1cc(F)c(F)c(F)c1 [Compound 608]
67.2 | CCn1c(Oc2cccc(N3CCN(C)CC3)c2)nnc1[C@@H](C)NS(=O)(=O)c1ccccc1Cl [Compound 552]
107 | CCn1c(Oc2cccc(N3CCN(C)CC3)c2)nnc1[C@@H](C)NS(=O)(=O)c1cc(C)cc(C)c1 [Compound 602]
109 | CCn1c(Oc2cccc(N3CCN(C)CC3)c2)nnc1[C@@H](C)NS(=O)(=O)c1cccc(OC(F)F)c1 [Compound 604]
100 | CCn1c(Oc2cccc(N3CCN(C)CC3)c2)nnc1[C@@H](C)NS(=O)(=O)c1ccccc1C [Compound 531]
108 | CCn1c(Oc2cccc(N3CCN(C)CC3)c2)nnc1[C@@H](C)NS(=O)(=O)c1ccc(Cl)cc1 [Compound 505]
69.9 | CCn1c(Oc2cccc(N3CCN(C)CC3)c2)nnc1[C@@H](C)NS(=O)(=O)c1ccc(S(C)(=O)=O)cc1 [Compound 520]
100 | CCn1c(Oc2cccc(N3CCN(C)CC3)c2)nnc1[C@@H](C)NS(=O)(=O)c1cc(F)c(F)cc1F [Compound 596]
104 | CCn1c(Oc2cccc(N3CCN(C)CC3)c2)nnc1[C@@H](C)NS(=O)(=O)c1ccc(Br)cc1C [Compound 575]

Same assay, conditions: test compound at 10 μM; inhibition of [33P]-S1P binding to the membrane fraction of HEK-293 cells expressing human Edg-1 (S1P1)

inhibition at 10 µM [%] | Compound
51.4 | CCn1c(Oc2ccc(F)cc2)nnc1[C@@H](C)NS(=O)(=O)c1ccc(F)cc1F [Compound 227]
82.1 | CCn1c(Oc2ccc(F)cc2)nnc1[C@@H](C)NS(=O)(=O)c1cc(C)sc1C [Compound 300]
52.5 | CCn1c(Oc2ccc(F)cc2)nnc1C(C)(C)NS(=O)(=O)c1c(C)cc(C)cc1C [Compound 174]
60.2 | CCn1c(Oc2ccc(F)cc2)nnc1[C@@H](C)NS(=O)(=O)c1cccc(C(C)=O)c1 [Compound 306]
89.2 | CCn1c(Oc2ccc3cc[nH]c3c2)nnc1[C@@H](C)NS(=O)(=O)c1cccc(Cl)c1Cl [Compound 379]
95.9 | CCn1c(Oc2ccc(F)cc2)nnc1[C@@H](C)NS(=O)(=O)c1cccc(OC(F)F)c1 [Compound 264]
93.7 | Cc1c(C)c(C)c(S(=O)(=O)N[C@H](C)c2nnc(Oc3ccc(F)cc3)n2C)c(C)c1C [Compound 220]
79.7 | CCn1c(Oc2ccc3cc[nH]c3c2)nnc1[C@@H](C)NS(=O)(=O)c1cc(C)ccc1OC [Compound 393]
84.3 | CCn1c(Oc2ccc(F)cc2)nnc1[C@@H](C)NS(=O)(=O)c1ccc(C(=O)OC)n1C [Compound 201]
95.6 | CCn1c(Oc2ccc3cc[nH]c3c2)nnc1[C@@H](C)NS(=O)(=O)/C=C/c1ccccc1 [Compound 356]
81.8 | CCn1c(Oc2ccc(F)cc2)nnc1[C@@H](C)N(C)S(=O)(=O)c1ccc(Cl)c(Cl)c1 [Compound 115, 3,4-Dichloro-N-[(R)-1-[4-ethyl-5-(4-fluorophenoxy)-4H-[1,2,4]triazol-3-yl]-ethyl]-N-methyl-benzenesulfonamide]
75 | CCn1c(Oc2ccc3cc[nH]c3c2)nnc1[C@@H](C)NS(=O)(=O)c1ccc(S(C)(=O)=O)cc1 [Compound 350]
65.6 | CCn1c(Oc2ccc(F)cc2)nnc1[C@@H](C)NS(=O)(=O)c1ccc(-c2csnn2)s1 [Compound 196]
90.1 | CCn1c(Oc2ccc(F)cc2)nnc1[C@@H](C)NS(=O)(=O)c1cc(C)ccc1C [Compound 195]
113 | CCn1c(Oc2ccc(F)cc2)nnc1[C@@H](C)NS(=O)(=O)c1cc(C)c(Cl)cc1C [Compound 167]
96.2 | C=Cc1ccc(S(=O)(=O)N[C@H](C)c2nnc(Oc3ccc4cc[nH]c4c3)n2CC)cc1 [Compound 363]
60.5 | CCn1c(Oc2ccc3cc[nH]c3c2)nnc1[C@@H](C)NS(=O)(=O)c1ccc(-c2csnn2)s1 [Compound 368]
62.8 | CCn1c(Oc2ccc3cc[nH]c3c2)nnc1[C@@H](C)NS(=O)(=O)c1sc2ccc(Cl)cc2c1C [Compound 339]
102 | CCn1c(Oc2ccc(F)cc2)nnc1[C@@H](C)NS(=O)(=O)c1cc(Cl)cc(Cl)c1 [Compound 213]
87.9 | CCn1c(Oc2ccc(F)cc2)nnc1[C@@H](C)NS(=O)(=O)c1ccc(OC(F)(F)F)cc1 [Compound 190]

From US8022091B2, “Triazole derivative” (Taisho Pharmaceutical Co., Ltd., priority 2006, dated 2011)
